Patent US20080051387A1, “TETRAHYDROPYRIDO[3,4-D]PYRIMIDINES AND RELATED ANALOGUES” (priority 2006, published 2008)

Target: T1, chimeric human H3 receptor (Homo sapiens, UniProt Q9Y5N1)
T1 construct: rat Galpha-i2 (Gnai2, rat); made in house; host or cells: Sf9 insect cells (baculovirus); P2 membranes
Experiment: Chimeric human H3 receptor screening GTP binding assay (inhibition of histamine-stimulated GTP-gamma35S binding, Example 8)
Assay type: biochemical
Details: 1 h; assay described in Example 8; symbol "!" in column headed Ki; read-out: Ki ("!": percent inhibition of agonist-induced GTP-gammaS binding to H3)
Procedure, shortened: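 Compound tested at 4 μM against 1 μM histamine stimulation; 125 pM GTP-gamma35S binding measured by filtration and scintillation after 60 min at room temperature. Membranes from Sf9 cells expressing chimeric human H3 plus G-protein subunits, in Tris pH 7.4/NaCl/MgCl2/GDP buffer; values are % inhibition after nonspecific subtraction.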

T1 sequence (Q9Y5N1 with tags, fused parts or gaps): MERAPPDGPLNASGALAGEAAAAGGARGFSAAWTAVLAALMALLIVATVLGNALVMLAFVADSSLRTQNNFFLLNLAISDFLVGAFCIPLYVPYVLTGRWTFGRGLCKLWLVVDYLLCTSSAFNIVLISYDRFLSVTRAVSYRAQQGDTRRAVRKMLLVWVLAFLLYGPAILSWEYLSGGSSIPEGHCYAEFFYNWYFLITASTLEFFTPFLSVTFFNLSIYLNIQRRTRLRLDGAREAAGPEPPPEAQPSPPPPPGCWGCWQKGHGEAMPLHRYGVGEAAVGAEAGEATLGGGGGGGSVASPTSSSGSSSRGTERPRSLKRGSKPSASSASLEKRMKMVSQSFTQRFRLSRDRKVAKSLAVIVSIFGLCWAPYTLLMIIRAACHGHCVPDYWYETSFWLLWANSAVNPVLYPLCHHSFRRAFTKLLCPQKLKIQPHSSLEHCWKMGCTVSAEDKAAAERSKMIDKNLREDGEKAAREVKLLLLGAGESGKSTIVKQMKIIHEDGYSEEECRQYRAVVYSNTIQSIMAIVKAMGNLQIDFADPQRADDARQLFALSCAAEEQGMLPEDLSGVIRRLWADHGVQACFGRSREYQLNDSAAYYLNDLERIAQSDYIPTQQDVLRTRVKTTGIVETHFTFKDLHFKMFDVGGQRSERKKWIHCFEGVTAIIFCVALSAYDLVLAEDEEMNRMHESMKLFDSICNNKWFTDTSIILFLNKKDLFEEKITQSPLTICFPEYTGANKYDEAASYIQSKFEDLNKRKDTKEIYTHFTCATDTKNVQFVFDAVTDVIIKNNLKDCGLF

Row | SMILES | inhibition at 4 µM
1 | CSc1ncccc1C(=O)N1CCc2cnc(N3CCN(C4CCC4)CC3)nc2CC1 [Compound 501, 2-(4-cyclobutylpiperazin-1-yl)-7-{[2-(methylthio)pyridin-3-yl]carbonyl}-6,7,8,9-tetrahydro-5H-pyrimido[4,5-d]azepine] | ≥ 90%
2 | CCCc1c(C(=O)N2CCc3cnc(N4CCN(C5CCC5)CC4)nc3CC2)cnn1-c1ccc(Cl)cc1 [Compound 512, 7-{[1-(4-chlorophenyl)-5-propyl-1H-pyrazol-4-yl]carbonyl}-2-(4-cyclobutylpiperazin-1-yl)-6,7,8,9-tetrahydro-5H-pyrimido[4,5-d]azepine] | ≥ 90%
3 | O=C(c1ccsc1)N1CCc2cnc(N3CCN(C4CCC4)CC3)nc2CC1 [Compound 464, 2-(4-cyclobutylpiperazin-1-yl)-7-(3-thienylcarbonyl)-6,7,8,9-tetrahydro-5H-pyrimido[4,5-d]azepine] | ≥ 90%
4 | O=C(c1cnn(-c2ccccc2)c1C(F)(F)F)N1CCc2cnc(N3CCN(C4CCC4)CC3)nc2CC1 [Compound 511, 2-(4-cyclobutylpiperazin-1-yl)-7-{[1-phenyl-5-(trifluormethyl)-1H-pyrazol-4-yl]carbonyl}-6,7,8,9-tetrahydro-5H-pyrimido[4,5-d]azepine] | ≥ 90%
5 | O=C(c1ccnc(Cl)c1)N1CCc2cnc(N3CCN(C4CCC4)CC3)nc2CC1 [Compound 483, 7-(2-chloroisonicotinoyl)-2-(4-cyclobutylpiperazin-1-yl)-6,7,8,9-tetrahydro-5H-pyrimido[4,5-d]azepine] | ≥ 90%
6 | COc1ccc(Br)cc1/C=C/C(=O)N1CCc2cnc(N3CCN(C4CCC4)CC3)nc2CC1 [Compound 576, 7-[(2E)-3-(5-bromo-2-methoxyphenyl)prop-2-enoyl]-2-(4-cyclobutylpiperazin-1-yl)-6,7,8,9-tetrahydro-5H-pyrimido[4,5-d]azepine] | ≥ 90%
7 | CCOc1ccsc1C(=O)N1CCc2cnc(N3CCN(C4CCC4)CC3)nc2CC1 [Compound 447, 2-(4-cyclobutylpiperazin-1-yl)-7-[(3-ethoxy-2-thienyl)carbonyl]-6,7,8,9-tetrahydro-5H-pyrimido[4,5-d]azepine] | ≥ 90%
8 | O=C(c1ccc(Cl)nc1)N1CCc2cnc(N3CCN(C4CCC4)CC3)nc2CC1 [Compound 478, 7-[(6-chloropyridin-3-yl)carbonyl]-2-(4-cyclobutylpiperazin-1-yl)-6,7,8,9-tetrahydro-5H-pyrimido[4,5-d]azepine] | ≥ 90%

Same assay, conditions: 1 h; assay of Example 8; symbol "!" in column headed Ki; read-out: percent inhibition of agonist-induced GTP-gammaS binding to H3

Row | SMILES | inhibition at 4 µM
9 | O=C(Cc1cccc2ccccc12)N1CCc2cnc(N3CCN(C4CCC4)CC3)nc2CC1 [Compound 309, 2-(4-cyclobutylpiperazin-1-yl)-7-(1-naphthylacetyl)-6,7,8,9-tetrahydro-5H-pyrimido[4,5-d]azepine] | ≥ 90%
10 | CC(=O)c1ccc(N2CCc3cnc(N4CCN(C5CCC5)CC4)nc3CC2)nc1 [Compound 185, 1-{6-[2-(4-cyclobutylpiperazin-1-yl)-5,6,8,9-tetrahydro-7H-pyrimido[4,5-d]azepin-7-yl]pyridin-3-yl}ethanone] | ≥ 90%
11 | c1cc(N2CCCC2)ncc1CN1CCc2cnc(N3CCN(C4CCC4)CC3)nc2CC1 [Compound 263, 2-(4-cyclobutylpiperazin-1-yl)-7-[(6-pyrrolidin-1-ylpyridin-3-yl)methyl]-6,7,8,9-tetrahydro-5H-pyrimido[4,5-d]azepine] | ≥ 90%
12 | CCCCN1CCc2cnc(N3CCN(C4CCC4)CC3)nc2CC1 [Compound 248, 7-butyl-2-(4-cyclobutylpiperazin-1-yl)-6,7,8,9-tetrahydro-5H-pyrimido[4,5-d]azepine] | ≥ 90%
13 | CCOc1cccc(C(=O)N2CCc3cnc(N4CCN(C5CCC5)CC4)nc3CC2)c1 [Compound 367, 2-(4-cyclobutylpiperazin-1-yl)-7-(3-ethoxybenzoyl)-6,7,8,9-tetrahydro-5H-pyrimido[4,5-d]azepine] | ≥ 90%
14 | O=C(Cc1ccccc1)N1CCc2cnc(N3CCN(C4CCC4)CC3)nc2CC1 [Compound 213, 2-(4-cyclobutylpiperazin-1-yl)-7-(phenylacetyl)-6,7,8,9-tetrahydro-5H-pyrimido[4,5-d]azepine] | ≥ 90%
15 | O=C(c1ccc(Oc2ccccc2)cc1)N1CCc2cnc(N3CCN(C4CCC4)CC3)nc2CC1 [Compound 372, 2-(4-cyclobutylpiperazin-1-yl)-7-(4-phenoxybenzoyl)-6,7,8,9-tetrahydro-5H-pyrimido[4,5-d]azepine] | ≥ 90%
16 | O=C(c1ccccn1)N1CCc2cnc(N3CCN(C4CCC4)CC3)nc2CC1 [Compound 199, 2-(4-cyclobutylpiperazin-1-yl)-7-(pyridin-2-ylcarbonyl)-6,7,8,9-tetrahydro-5H-pyrimido[4,5-d]azepine] | ≥ 90%
17 | c1cncc(CN2CCc3cnc(N4CCN(C5CCC5)CC4)nc3CC2)c1 [Compound 239, 2-(4-cyclobutylpiperazin-1-yl)-7-(pyridin-3-ylmethyl)-6,7,8,9-tetrahydro-5H-pyrimido[4,5-d]azepine] | ≥ 90%
18 | O=C(COc1ccccc1)N1CCc2cnc(N3CCN(C4CCC4)CC3)nc2CC1 [Compound 315, 2-(4-cyclobutylpiperazin-1-yl)-7-(phenoxyacetyl)-6,7,8,9-tetrahydro-5H-pyrimido[4,5-d]azepine] | ≥ 90%
19 | COc1ccccc1OCC(=O)N1CCc2cnc(N3CCN(C4CCC4)CC3)nc2CC1 [Compound 323, 2-(4-cyclobutylpiperazin-1-yl)-7-[(2-methoxyphenoxy)acetyl]-6,7,8,9-tetrahydro-5H-pyrimido[4,5-d]azepine] | ≥ 90%
20 | O=C(c1cccnc1)N1CCc2cnc(N3CCN(C4CCC4)CC3)nc2CC1 [Compound 198, 2-(4-cyclobutylpiperazin-1-yl)-7-(pyridin-3-ylcarbonyl)-6,7,8,9-tetrahydro-5H-pyrimido[4,5-d]azepine] | ≥ 90%
21 | O=C(Cc1ccccc1OC(F)(F)F)N1CCc2cnc(N3CCN(C4CCC4)CC3)nc2CC1 [Compound 313, 2-(4-cyclobutylpiperazin-1-yl)-7-{[2-(trifluoromethoxy)phenyl]acetyl}-6,7,8,9-tetrahydro-5H-pyrimido[4,5-d]azepine] | ≥ 90%
22 | COc1ccc(Br)cc1CC(=O)N1CCc2cnc(N3CCN(C4CCC4)CC3)nc2CC1 [Compound 311, 7-[(5-bromo-2-methoxyphenyl)acetyl]-2-(4-cyclobutylpiperazin-1-yl)-6,7,8,9-tetrahydro-5H-pyrimido[4,5-d]azepine] | ≥ 90%

Same assay, conditions: symbol ! in Ki; test compound 4 μM, 1 μM histamine; read-out: percent inhibition of agonist-induced GTP-gammaS binding to H3

Row | SMILES | inhibition at 4 µM
23 | FC(F)(F)c1ccc(N2CCc3c(ncnc3N3CCN(C4CCC4)CC3)C2)nc1 [Compound 138, 4-(4-cyclobutylpiperazin-1-yl)-7-[5-(trifluoromethyl)pyridin-2-yl]-5,6,7,8-tetrahydropyrido[3,4-d]pyrimidine] | ≥ 90%
24 | Cc1cc(C(C)N2CCc3c(ncnc3N3CCN(C4CCC4)CC3)C2)n(C)n1 (stereo not drawn) [Compound 112, 4-(4-cyclobutylpiperazin-1-yl)-7-[1-(1,3-dimethyl-1H-pyrazol-5-yl)ethyl]-5,6,7,8-tetrahydropyrido[3,4-d]pyrimidine] | ≥ 90%
25 | Clc1ccccc1CN1CCc2ncnc(N3CCN(C4CCC4)CC3)c2CC1 [Compound 180, 7-(2-chlorobenzyl)-4-(4-cyclobutylpiperazin-1-yl)-6,7,8,9-tetrahydro-5H-pyrimido[4,5-d]azepine] | ≥ 90%
26 | c1nc2c(c(N3CCN(C4CCC4)CC3)n1)CCN(Cc1ccc(N3CCOCC3)nc1)C2 [Compound 76, 4-(4-cyclobutylpiperazin-1-yl)-7-[(6-morpholin-4-ylpyridin-3-yl)methyl]-5,6,7,8-tetrahydropyrido[3,4-d]pyrimidine] | ≥ 90%
27 | O=C(c1ccccc1)N1CCc2c(ncnc2N2CCN(C3CCC3)CC2)C1 [Compound 22, 7-benzoyl-4-(4-cyclobutylpiperazin-1-yl)-5,6,7,8-tetrahydropyrido[3,4-d]pyrimidine] | ≥ 90%
28 | c1nc2c(c(N3CCN(C4CCC4)CC3)n1)CCN(CC1CC1)CC2 [Compound 169, 4-(4-cyclobutylpiperazin-1-yl)-7-(cyclopropylmethyl)-6,7,8,9-tetrahydro-5H-pyrimido[4,5-d]azepine] | ≥ 90%
29 | Fc1ccccc1CN1CCc2c(ncnc2N2CCN(C3CCC3)CC2)C1 [Compound 66, 4-(4-cyclobutylpiperazin-1-yl)-7-(2-fluorobenzyl)-5,6,7,8-tetrahydropyrido[3,4-d]pyrimidine] | ≥ 90%
30 | Cc1ccc(C(C)N2CCc3c(ncnc3N3CCN(C4CCC4)CC3)C2)cc1 (stereo not drawn) [Compound 106, 4-(4-cyclobutylpiperazin-1-yl)-7-[1-(4-methylphenyl)ethyl]-5,6,7,8-tetrahydropyrido[3,4-d]pyrimidine] | ≥ 90%
31 | CC(C1CCOC1)N1CCc2c(ncnc2N2CCN(C3CCC3)CC2)C1 (stereo not drawn) [Compound 127, 4-(4-cyclobutylpiperazin-1-yl)-7-[1-(tetrahydrofuran-3-yl)ethyl]-5,6,7,8-tetrahydropyrido[3,4-d]pyrimidine] | ≥ 90%
32 | Cc1cccc(CN2CCc3nc(N4CCN(C5CCC5)CC4)ncc3C2)c1 [Compound 614, 2-(4-cyclobutylpiperazin-1-yl)-6-(3-methylbenzyl)-5,6,7,8-tetrahydropyrido[4,3-d]pyrimidine] | ≥ 90%

Same assay, conditions: test compound 4 μM, 1 μM histamine; read-out: percent inhibition of agonist-induced GTP-gammaS binding to H3

Row | SMILES | inhibition at 4 µM
33 | O=C(c1ccc(F)cc1)N1CCc2cnc(N3CCN(C4CCC4)CC3)nc2CC1 [Compound 10, [2-(4-Cyclobutyl-piperazin-1-yl)-5,6,8,9-tetrahydro-pyrimido[4.5-d]azepin-7-yl]-(4-fluoro-phenyl)-methanone] | ≥ 90%
